# ChEMBL document CHEMBL1135599, “Synthesis and evaluation of potent and selective beta(3) adrenergic receptor agonists containing acylsulfonamide, sulfonylsulfonamide, and sulfonylurea carboxylic acid isosteres” (J Med Chem, 2002)
# Columns and labels:
# [1] = biological target: T1, Beta-1 adrenergic receptor (Homo sapiens, UniProt P08588); experiment: (§1) concentration-response expressed as a percent of the maximal response to R-(-) isoproterenol (ISO).Emax is the fitted maximal value of the concentration; format: functional
# Target sequence in this assay (P08588 whole entry, looked up): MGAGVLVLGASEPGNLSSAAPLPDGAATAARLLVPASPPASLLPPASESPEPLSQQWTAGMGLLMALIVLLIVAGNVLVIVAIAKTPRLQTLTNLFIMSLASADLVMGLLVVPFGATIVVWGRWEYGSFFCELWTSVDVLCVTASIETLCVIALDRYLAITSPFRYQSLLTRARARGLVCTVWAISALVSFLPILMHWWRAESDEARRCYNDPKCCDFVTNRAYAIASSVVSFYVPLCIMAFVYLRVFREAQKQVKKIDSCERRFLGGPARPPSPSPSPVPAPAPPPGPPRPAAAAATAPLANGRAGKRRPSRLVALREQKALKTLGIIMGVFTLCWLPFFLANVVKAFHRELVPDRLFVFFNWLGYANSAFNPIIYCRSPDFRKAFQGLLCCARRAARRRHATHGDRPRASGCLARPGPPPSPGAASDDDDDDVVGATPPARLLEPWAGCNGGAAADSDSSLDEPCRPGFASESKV
# [2] = biological target: T2, Beta-2 adrenergic receptor (Homo sapiens, UniProt P07550); experiment: as §1; format: functional
# Target sequence in this assay (P07550 whole entry, looked up): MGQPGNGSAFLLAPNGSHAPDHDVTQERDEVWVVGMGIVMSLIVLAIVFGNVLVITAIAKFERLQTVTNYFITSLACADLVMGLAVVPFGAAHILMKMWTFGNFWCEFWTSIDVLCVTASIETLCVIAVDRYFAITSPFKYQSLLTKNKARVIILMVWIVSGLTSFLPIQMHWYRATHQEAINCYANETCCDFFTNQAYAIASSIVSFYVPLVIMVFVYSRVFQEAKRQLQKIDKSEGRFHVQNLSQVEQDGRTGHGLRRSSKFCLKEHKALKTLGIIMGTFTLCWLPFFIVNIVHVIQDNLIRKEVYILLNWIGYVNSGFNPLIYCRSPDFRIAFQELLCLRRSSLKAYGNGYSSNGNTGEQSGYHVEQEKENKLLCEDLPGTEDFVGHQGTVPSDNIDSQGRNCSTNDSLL
# [3] = biological target: T3, Beta-3 adrenergic receptor (Homo sapiens, UniProt P13945); experiment: as §1; format: functional
# Target sequence in this assay (P13945 whole entry, looked up): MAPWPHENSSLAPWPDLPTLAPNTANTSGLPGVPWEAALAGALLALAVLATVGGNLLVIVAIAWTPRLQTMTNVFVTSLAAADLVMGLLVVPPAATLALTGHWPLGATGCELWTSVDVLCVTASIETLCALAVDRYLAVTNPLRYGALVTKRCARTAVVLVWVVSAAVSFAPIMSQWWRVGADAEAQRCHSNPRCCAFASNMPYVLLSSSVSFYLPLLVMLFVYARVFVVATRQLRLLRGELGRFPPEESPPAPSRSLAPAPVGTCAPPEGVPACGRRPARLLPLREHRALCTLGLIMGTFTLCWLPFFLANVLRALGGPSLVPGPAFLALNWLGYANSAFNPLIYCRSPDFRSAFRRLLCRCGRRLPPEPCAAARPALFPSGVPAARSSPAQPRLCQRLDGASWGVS
# [4] = biological target: T1, Beta-1 adrenergic receptor; experiment: Ability to cause cAMP accumulation in CHO cells expressing human beta-1 AR expressed as the negative logarithm of the molar drug concentration; format: functional, cell-based
# Target sequence in this assay (P08588 whole entry): as the sequence (P08588 whole entry, looked up) above
# [5] = biological target: T2, Beta-2 adrenergic receptor; experiment: Ability to cause cAMP accumulation in CHO cells expressing human beta-2 AR expressed as the negative logarithm of the molar drug concentration; format: functional, cell-based
# Target sequence in this assay (P07550 whole entry): as the sequence (P07550 whole entry, looked up) above
# [6] = Selectivity ratio (Beta-1EC50/ Beta-3EC50); format: functional
# [7] = Selectivity ratio (Beta-2EC50/ Beta-3EC50); format: functional
# [8] = biological target: T3, Beta-3 adrenergic receptor
# Target sequence in this assay (P13945 whole entry): as the sequence (P13945 whole entry, looked up) above
# [9] = plasma concentration at the 2.5 hour time; significant; format: ADME
# [10] = Half life (t1/2) value in dogs after an intravenous dose of 0.2 mg/Kg; format: ADME, organism-based, Canis lupus familiaris; details: dog, in vivo
# [11] = biological target: T1, Beta-1 adrenergic receptor; experiment: (§2) concentration-response expressed as a percent of the maximal response to R-(-) isoproterenol (ISO); format: functional
# Target sequence in this assay (P08588 whole entry, looked up): as the sequence (P08588 whole entry, looked up) above
# [12] = biological target: T3, Beta-3 adrenergic receptor; experiment: as §2; format: functional
# Target sequence in this assay (P13945 whole entry, looked up): as the sequence (P13945 whole entry, looked up) above
# [13] = biological target: T3, Beta-3 adrenergic receptor; experiment: Activity against human beta 3 adrenergic receptor (AR), expressed in CHO cells.; format: functional, cell-based
# Target sequence in this assay (P13945 whole entry): as the sequence (P13945 whole entry, looked up) above
# [14] = biological target: T2, Beta-2 adrenergic receptor; experiment: concentration-response expressed as a percent of the maximal response to R-(-) isoprenaline (ISO); format: functional
# Target sequence in this assay (P07550 whole entry, looked up): as the sequence (P07550 whole entry, looked up) above
# [15] = biological target: T2, Beta-2 adrenergic receptor; experiment: Activity against human beta 2 adrenergic receptor (AR), expressed in CHO cells; format: functional, cell-based
# Target sequence in this assay (P07550 whole entry): as the sequence (P07550 whole entry, looked up) above
# [16] = biological target: T3, Beta-3 adrenergic receptor; experiment: Ability to cause cAMP accumulation in CHO cells expressing human beta-3 AR expressed as the negative logarithm of the molar drug concentration; format: functional, cell-based
# Target sequence in this assay (P13945 whole entry): as the sequence (P13945 whole entry, looked up) above
# [17] = biological target: T2, Beta-2 adrenergic receptor; experiment: concentration-response expressed as a percent of the maximal response to R-(-) isoprenaline (ISO).Emax is the fitted maximal value of the concentration; format: functional
# Target sequence in this assay (P07550 whole entry, looked up): as the sequence (P07550 whole entry, looked up) above
# [18] = biological target: T1, Beta-1 adrenergic receptor; experiment: Receptor binding assay(Beta-1 adrenergic receptor) carried out with membranes prepared from human recombinant Sf9 cells expressing the cloned human receptor in the presence of [125I]iodocyanopindolol; format: cell membranes
# Target sequence in this assay (P08588 whole entry): as the sequence (P08588 whole entry, looked up) above
# [19] = biological target: T2, Beta-2 adrenergic receptor; experiment: Receptor binding assay(Beta-2 adrenergic receptor) carried out with membranes prepared from human recombinant Sf9 cells expressing the cloned human receptor in the presence of [125I]iodocyanopindolol; format: cell membranes
# Target sequence in this assay (P07550 whole entry): as the sequence (P07550 whole entry, looked up) above
# [20] = Area under curve (AUC) value in dogs after an intravenous dose of 0.2 mg/Kg in 0.025 M aqueous methanesulfonic acid solution with 5% mannitol at a concentration of 0.2; format: ADME, organism-based, Canis lupus familiaris; details: dog, in vivo
# [21] = plasma concentration at the 2.5 hour time; format: ADME; details: read-out: C
# [22] = Volume distribution in dogs after an intravenous dose of 0.2 mg/Kg; format: ADME, organism-based; details: dog, in vivo
# Canis familiaris = experiment: Plasma clearance in dogs after an intravenous dose of 0.2 mg/Kg; format: ADME, organism-based, Canis lupus familiaris; details: dog, in vivo
# [23] = Area under curve (AUC) value in dogs after an intravenous dose of 0.2 mg/Kg in 0.025 M aqueous methanesulfonic acid solution with 5% mannitol; format: ADME; details: dog, in vivo
# [24] = biological target: T1, Beta-1 adrenergic receptor; experiment: Concentration that causes 50% inhibition of human beta 1 adrenergic receptor (AR), expressed in CHO cells.; format: functional, cell-based
# Target sequence in this assay (P08588 whole entry): as the sequence (P08588 whole entry, looked up) above
# [25] = biological target: T2, Beta-2 adrenergic receptor; experiment: Concentration that causes 50% inhibition of human beta 2 adrenergic receptor (AR), expressed in CHO cells.; format: functional, cell-based
# Target sequence in this assay (P07550 whole entry): as the sequence (P07550 whole entry, looked up) above
Structure (SMILES),Emax [1],Emax [2],Emax [3],EC50 [4],EC50 [5],Ratio [6],Ratio [7],EC50 [8],also measured
CC(=O)NCc1ccc(NC[C@@H](C)NC[C@H](O)c2cccc(Cl)c2)cc1,15%,75%,123%,7.94 nM,3.16 nM,0.6,0.3,12.6 nM,–
C[C@H](CNc1cccc(CCS(=O)(=O)NS(=O)(=O)c2ccccc2)c1)NC[C@H](O)c1cccc(Cl)c1,–,–,–,–,–,> 500,630,–,C [9]: Not Active; half-life [10]: < 1 h; Emax [11]: 21%; Emax [12]: 113%; EC50 [13]: 1.58 nM; Emax [14]: 31%; EC50 [15]: 1000 nM
Cc1ccc(CNC(=O)Cc2ccc(NC[C@@H](C)NC[C@H](O)c3cccc(Cl)c3)cc2)cc1,12%,40%,126%,25.1 nM,1 nM,0.4,0.02,–,EC50 [16]: 63.1 nM
C[C@H](CNc1ccc(C(=O)O)cc1)NC[C@H](O)c1cccc(Cl)c1,17%,70%,79%,631 nM,3160 nM,0.8,4,794 nM,–
C[C@H](Cc1ccc(OCC(=O)O)cc1)NC[C@H](O)c1cccc(Cl)c1,28%,–,–,–,–,–,–,–,Emax [17]: 80%
Cc1ccc(S(=O)(=O)NCCc2ccc(NC[C@@H](C)NC[C@H](O)c3cccc(Cl)c3)cc2)cc1,22%,28%,98%,20 nM,10 nM,1,0.5,–,EC50 [16]: 20 nM
C[C@H](CNc1cccc(CC(=O)O)c1)NC[C@H](O)c1cccc(Cl)c1,6%,–,117%,> 10000 nM,50.1 nM,–,0.2,316 nM,Emax [17]: 80%
C[C@H](CNc1ccc(CC(=O)O)cc1)NC[C@H](O)c1cccc(Cl)c1,–,–,–,79.4 nM,50.1 nM,5,3.1,15.8 nM,IC50 [18]: 1000 nM; IC50 [19]: 794 nM; Emax [17]: 90%
Cc1ccc(S(=O)(=O)NC(=O)Cc2ccc(NC[C@@H](C)NC[C@H](O)c3cccc(Cl)c3)cc2)cc1,23%,34%,98%,631 nM,79.4 nM,501,63,1.26 nM,AUC [20]: 715 ng·h/mL; concentration at 2.5 h [21]: 42.1 ng/mL; half-life [10]: 1 h; Vd [22]: 0.2 L/kg; Clp (Canis familiaris): 4.7 mL/min/kg; IC50 [18]: 2000 nM; IC50 [19]: 5010 nM
C[C@H](CNc1ccc(CC(=O)NS(=O)(=O)c2ccccc2)cc1)NC[C@H](O)c1cccc(Cl)c1,22%,59%,110%,794 nM,31.6 nM,1000,40,0.794 nM,–
C[C@H](CNc1ccc(CCS(=O)(=O)NC(=O)c2ccccc2)cc1)NC[C@H](O)c1cccc(Cl)c1,27%,52%,100%,–,–,79,32,–,AUC [23]: 383 ng·h/mL; half-life [10]: 1.2 h; Vd [22]: 0.478 L/kg; Clp (Canis familiaris): 8.7 mL/min/kg; EC50 [24]: 794 nM; EC50 [25]: 316 nM; EC50 [16]: 10 nM
C[C@H](CNc1ccccc1)NC[C@H](O)c1cccc(Cl)c1,27%,100%,105%,5.01 nM,10 nM,0.3,0.5,20 nM,–
C[C@H](CNc1ccc(CC(=O)Nc2nccs2)cc1)NC[C@H](O)c1cccc(Cl)c1,14%,31%,101%,3.16 nM,7.94 nM,2.5,6.3,1.26 nM,–
C[C@H](CNc1ccc(CNS(C)(=O)=O)cc1)NC[C@H](O)c1cccc(Cl)c1,11%,66%,102%,5.01 nM,5.01 nM,0.4,0.4,20 nM,–
C[C@H](CNc1cccc(CNC(=O)NS(=O)(=O)c2ccccc2)c1)NC[C@H](O)c1cccc(Cl)c1,15%,23%,105%,–,–,25,16,–,half-life [10]: < 1 h; EC50 [24]: 398 nM; EC50 [25]: 251 nM; EC50 [16]: 15.8 nM
C[C@H](CNc1ccc(CCC(=O)O)cc1)NC[C@H](O)c1cccc(Cl)c1,10%,22%,104%,251 nM,398 nM,10,16,25.1 nM,–
Cc1ccc(S(=O)(=O)NC(=O)Cc2cccc(NC[C@@H](C)NC[C@H](O)c3cccc(Cl)c3)c2)cc1,8%,16%,98%,–,–,> 794,> 158,6.31 nM,concentration at 2.5 h [21]: 10.3 ng/mL; AUC [23]: 279 ng·h/mL; half-life [10]: 1.7 h; Vd [22]: 0.409 L/kg; Clp (Canis familiaris): 11.9 mL/min/kg; IC50 [18]: 5010 nM; IC50 [19]: 15800 nM; EC50 [24]: > 5010 nM; EC50 [25]: > 1000 nM
C[C@H](CNc1ccc(CC(=O)NS(C)(=O)=O)cc1)NC[C@H](O)c1cccc(Cl)c1,30%,78%,96%,100 nM,20 nM,20,4,5.01 nM,–
